Each structure is given as a SMILES string.

The assay concerns MV-4-11 cells. Description: Gene expression microarray analysis (Affymetrix PrimeView) and GSEA. On the set-up: RFU PODN (11730768_x_at) / Fold change /veh PODN (11730768_x_at) / RFU LINC00158 (11744669_a_at) / Fold change /veh LINC00158 (11744669_a_at) / RFU DUSP10 (11751237_a_at) / Fold change /veh DUSP10 (11751237_a_at) / RFU ID3 (11757404_x_at) / Fold change /veh ID3 (11757404_x_at) / RFU PLEKHG5 (11737974_s_at) / Fold change /veh PLEKHG5 (11737974_s_at) / RFU LRRC4B (11730491_at) / Fold change /veh LRRC4B (11730491_at) / RFU GIMAP4 (11747438_a_at) / Fold change /veh GIMAP4 (11747438_a_at) / RFU KRT8 (11758183_x_at) / Fold change /veh KRT8 (11758183_x_at) / RFU CNN1 (11734310_a_at) / Fold change /veh CNN1 (11734310_a_at) / RFU VPS37D (11726825_at) / Fold change /veh VPS37D (11726825_at) / RFU C10orf10 (11716522_x_at) / Fold change /veh C10orf10 (11716522_x_at) / RFU KIR2DL2 /// KIR2DL4 /// KIR2DL5A /// KIR2DL5B /// KIR2DS1 /// KIR2DS2 /// KIR2DS3 /// KIR2DS4 /// KIR3DL3 /// KIR3DL3 /// KIR3DS1 (11738374_at) / Fold change /veh KIR2DL2 /// KIR2DL4 /// KIR2DL5A /// KIR2DL5B /// KIR2DS1 /// KIR2DS2 /// KIR2DS3 /// KIR2DS4 /// KIR3DL3 /// KIR3DL3 /// KIR3DS1 (11738374_at) / RFU C1QL1 (11718748_at) / Fold change /veh C1QL1 (11718748_at) / RFU TMPRSS4 (11747572_a_at) / Fold change /veh TMPRSS4 (11747572_a_at) / RFU HAMP (11756126_x_at) / Fold change /veh HAMP (11756126_x_at) / RFU RNFT2 (11725882_a_at) / Fold change /veh RNFT2 (11725882_a_at) / RFU NR4A2 (11747474_a_at) / Fold change /veh NR4A2 (11747474_a_at) / RFU ABCC12 (11746883_a_at) / Fold change /veh ABCC12 (11746883_a_at) / RFU TMEM136 (11760407_x_at) / Fold change /veh TMEM136 (11760407_x_at) / RFU CLDN22 /// WWC2 (11732394_at) / Fold change /veh CLDN22 /// WWC2 (11732394_at) / RFU HLA-DPB1 (11760878_x_at) / Fold change /veh HLA-DPB1 (11760878_x_at) / RFU SPINT1 (11716480_a_at) / Fold change /veh SPINT1 (11716480_a_at) / RFU GAP43 (11754022_s_at) / Fold change /veh GAP43 (11754022_s_at) / RFU A4GNT (11735810_at) / Fold change /veh A4GNT (11735810_at) / RFU PRB3 (11715151_x_at) / Fold change /veh PRB3 (11715151_x_at) / RFU TUBB4B (11761932_at) / Fold change /veh TUBB4B (11761932_at) / RFU CAPN14 (11732068_a_at) / Fold change /veh CAPN14 (11732068_a_at) / RFU TMCC2 (11721928_a_at) / Fold change /veh TMCC2 (11721928_a_at) / RFU IRGQ (11745062_a_at) / Fold change /veh IRGQ (11745062_a_at) / RFU FAM174B (11720279_a_at) / Fold change /veh FAM174B (11720279_a_at) / RFU TMPRSS4 (11748680_a_at) / Fold change /veh TMPRSS4 (11748680_a_at) / RFU FAM212B (11763350_a_at) / Fold change /veh FAM212B (11763350_a_at) / RFU PLEKHG5 (11743358_a_at) / Fold change /veh PLEKHG5 (11743358_a_at) / RFU ZSCAN30 (11745921_a_at) / Fold change /veh ZSCAN30 (11745921_a_at) / RFU CMKLR1 (11741424_a_at) / Fold change /veh CMKLR1 (11741424_a_at) / RFU LOC101060620 /// MAPK8IP1 (11723275_at) / Fold change /veh LOC101060620 /// MAPK8IP1 (11723275_at) / RFU SPTSSB (11747773_x_at) / Fold change /veh SPTSSB (11747773_x_at) / RFU PRSS12 (11739890_at) / Fold change /veh PRSS12 (11739890_at) / RFU BIN1 (11741810_x_at) / Fold change /veh BIN1 (11741810_x_at) / RFU WNT11 (11732464_a_at) / Fold change /veh WNT11 (11732464_a_at) / RFU C10orf10 (11716521_a_at) / Fold change /veh C10orf10 (11716521_a_at) / RFU C5orf56 (11738089_at) / Fold change /veh C5orf56 (11738089_at) / RFU CYB561 (11721691_x_at) / Fold change /veh CYB561 (11721691_x_at) / RFU ANKRD19P (11752326_a_at) / Fold change /veh ANKRD19P (11752326_a_at) / RFU OR2T12 /// OR2T33 /// OR2T8 (11738714_s_at) / Fold change /veh OR2T12 /// OR2T33 /// OR2T8 (11738714_s_at) / RFU VCAN (11748164_a_at) / Fold change /veh VCAN (11748164_a_at) / RFU JSRP1 (11732532_at) / Fold change /veh JSRP1 (11732532_at) / RFU KRTAP10-11 (11738290_x_at) / Fold change /veh KRTAP10-11 (11738290_x_at) / RFU MYO3A (11730013_a_at) / Fold change /veh MYO3A (11730013_a_at) / RFU EBF3 (11725865_a_at) / Fold change /veh EBF3 (11725865_a_at) / RFU CAMK2N1 (11719241_x_at) / Fold change /veh CAMK2N1 (11719241_x_at) / RFU C5orf56 (11738088_a_at) / Fold change /veh C5orf56 (11738088_a_at) / RFU OLFML3 (11715873_a_at) / Fold change /veh OLFML3 (11715873_a_at) / RFU LOC100653217 /// NTM (11731650_a_at) / Fold change /veh LOC100653217 /// NTM (11731650_a_at) / RFU MAPK11 (11762145_a_at) / Fold change /veh MAPK11 (11762145_a_at) / RFU FIZ1 (11724087_x_at) / Fold change /veh FIZ1 (11724087_x_at) / RFU OASL (11726364_x_at) / Fold change /veh OASL (11726364_x_at) / RFU SOX15 (11748057_x_at) / Fold change /veh SOX15 (11748057_x_at) / RFU CD79A (11719716_a_at) / Fold change /veh CD79A (11719716_a_at) / RFU HIST1H1D (11736915_at) / Fold change /veh HIST1H1D (11736915_at) / RFU CASKIN2 (11723855_a_at) / Fold change /veh CASKIN2 (11723855_a_at) / RFU LOC730098 (11760151_x_at) / Fold change /veh LOC730098 (11760151_x_at) / RFU OR4N2 (11742367_at) / Fold change /veh OR4N2 (11742367_at) / RFU PRRT2 (11749266_a_at) / Fold change /veh PRRT2 (11749266_a_at) / RFU SNX32 (11753110_a_at) / Fold change /veh SNX32 (11753110_a_at) / RFU CDHR5 (11726645_a_at) / Fold change /veh CDHR5 (11726645_a_at) / RFU RCAN1 (11760418_a_at) / Fold change /veh RCAN1 (11760418_a_at) / RFU FAM167A (11723789_a_at) / Fold change /veh FAM167A (11723789_a_at) / RFU FAM26E (11764081_at) / Fold change /veh FAM26E (11764081_at) / RFU ISYNA1 (11749810_s_at) / Fold change /veh ISYNA1 (11749810_s_at) / RFU ACY1 (11761880_at) / Fold change /veh ACY1 (11761880_at) / RFU 11764098_at / Fold change /veh 11764098_at / RFU SAMD14 (11745864_x_at) / Fold change /veh SAMD14 (11745864_x_at) / RFU NPB (11741838_a_at) / Fold change /veh NPB (11741838_a_at) / RFU TMPRSS6 (11731388_a_at) / Fold change /veh TMPRSS6 (11731388_a_at) / RFU KRTAP10-2 (11738614_at) / Fold change /veh KRTAP10-2 (11738614_at) / RFU ARHGAP8 /// PRR5-ARHGAP8 (11727945_x_at) / Fold change /veh ARHGAP8 /// PRR5-ARHGAP8 (11727945_x_at) / RFU KRTAP5-7 /// NADSYN1 (11734609_at) / Fold change /veh KRTAP5-7 /// NADSYN1 (11734609_at) / RFU RASL12 (11751679_a_at) / Fold change /veh RASL12 (11751679_a_at) / RFU CDKN2B (11736163_a_at) / Fold change /veh CDKN2B (11736163_a_at) / RFU PRF1 (11729649_at) / Fold change /veh PRF1 (11729649_at) / RFU, ZNF638 /// ZNF638-IT1 / Fold change vs veh, ZNF638 /// ZNF638-IT1 / RFU, PANK3 / Fold change vs veh, PANK3 / RFU, SH3YL1 / Fold change vs veh, SH3YL1 / RFU, ZEB2 / Fold change vs veh, ZEB2 / RFU, NRIP1 / Fold change vs veh, NRIP1 / RFU, PTTG1IP / Fold change vs veh, PTTG1IP / RFU, CAPN2 / Fold change vs veh, CAPN2 / RFU, MED14 / Fold change vs veh, MED14 / RFU, SNORA58 / Fold change vs veh, SNORA58 / RFU, C1orf63 / Fold change vs veh, C1orf63 / RFU, LRRFIP1 / Fold change vs veh, LRRFIP1 / RFU, NDUFAF7 / Fold change vs veh, NDUFAF7 / RFU, SLC12A2 / Fold change vs veh, SLC12A2 / RFU, IBTK / Fold change vs veh, IBTK / RFU, ESF1 / Fold change vs veh, ESF1 / Fold change vs veh, TMEM50B / RFU, TAOK1 / Fold change vs veh, TAOK1 / RFU, ACBD3 / Fold change vs veh, ACBD3 / RFU, TMA16 / Fold change vs veh, TMA16 / RFU, RWDD3 / Fold change vs veh, RWDD3 / RFU, BCAT1 / Fold change vs veh, BCAT1 / RFU, EDEM3 / Fold change vs veh, EDEM3 / RFU, TMEM33 / Fold change vs veh, TMEM33 / RFU, WDR75 / Fold change vs veh, WDR75 / RFU, AHCTF1 / Fold change vs veh, AHCTF1 / RFU, TFRC / Fold change vs veh, TFRC / RFU, ZDHHC17 / Fold change vs veh, ZDHHC17 / RFU, NOM1 / Fold change vs veh, NOM1 / RFU, ARL8B / Fold change vs veh, ARL8B / RFU, ZBTB11 / Fold change vs veh, ZBTB11 / RFU, TAMM41 / Fold change vs veh, TAMM41 / RFU, KIAA1704 /// LOC100996395 / Fold change vs veh, KIAA1704 /// LOC100996395 / RFU, ING1 / Fold change vs veh, ING1 / RFU, TRMT61B / Fold change vs veh, TRMT61B / RFU, FUBP3 / Fold change vs veh, FUBP3 / RFU, TP53 / Fold change vs veh, TP53 / RFU, TNKS2 / Fold change vs veh, TNKS2 / RFU, ZFP14 / Fold change vs veh, ZFP14 / RFU, ACTR2 / Fold change vs veh, ACTR2 / RFU, PPP3R1 / Fold change vs veh, PPP3R1 / RFU, PIK3R1 / Fold change vs veh, PIK3R1 / RFU, HNRNPA1 / Fold change vs veh, HNRNPA1 / RFU, RNF170 / Fold change vs veh, RNF170 / RFU, ZNF28 / Fold change vs veh, ZNF28 / RFU, RNGTT / Fold change vs veh, RNGTT / RFU, OGT / Fold change vs veh, OGT / RFU, BRD1 / Fold change vs veh, BRD1 / RFU, MARS / Fold change vs veh, MARS / RFU, ZNF655 / Fold change vs veh, ZNF655 / RFU, FAHD1 / Fold change vs veh, FAHD1 / RFU, BDP1 / Fold change vs veh, BDP1 / RFU, LRRCC1 / Fold change vs veh, LRRCC1 / RFU, ARID1A / Fold change vs veh, ARID1A / RFU, ZNF146 / Fold change vs veh, ZNF146 / RFU, ZNF330 / Fold change vs veh, ZNF330 / RFU, GPN3 / Fold change vs veh, GPN3 / RFU, C9orf123 / Fold change vs veh, C9orf123 / RFU, N4BP2L2 / Fold change vs veh, N4BP2L2 / RFU, ARFIP1 / Fold change vs veh, ARFIP1 / RFU, FAM179B / Fold change vs veh, FAM179B / RFU, BCL10 / Fold change vs veh, BCL10 / RFU, UHRF1BP1L / Fold change vs veh, UHRF1BP1L / RFU, BET1 / Fold change vs veh, BET1 / RFU, CNOT2 / Fold change vs veh, CNOT2 / RFU, ZNF268 / Fold change vs veh, ZNF268 / Fold change vs veh, ZNF507 / RFU, DGCR2 / Fold change vs veh, DGCR2 / RFU, WDSUB1 / Fold change vs veh, WDSUB1 / Fold change vs veh, HSP90B1 /// MIR3652 / RFU, ADSS / Fold change vs veh, ADSS / RFU, GK / Fold change vs veh, GK / RFU, ZNF148 / Fold change vs veh, ZNF148 / RFU, TAF9 / Fold change vs veh, TAF9 / RFU, SLC1A5 / Fold change vs veh, SLC1A5 / RFU, SLMO2 / Fold change vs veh, SLMO2 / RFU, ABCC4 / Fold change vs veh, ABCC4 / RFU, LOC101060439 /// RAP1B / Fold change vs veh, LOC101060439 /// RAP1B / RFU, RFX7 / Fold change vs veh, RFX7 / RFU, GTPBP10 / Fold change vs veh, GTPBP10 / RFU, CNEP1R1 / Fold change vs veh, CNEP1R1 / RFU, BIVM-ERCC5 /// ERCC5 / Fold change vs veh, BIVM-ERCC5 /// ERCC5 / RFU, ILF3 / Fold change vs veh, ILF3 / RFU 11762660_at / Fold change /veh 11762660_at / RFU VCAN (11757783_s_at) / Fold change /veh VCAN (11757783_s_at) / RFU DDX43 (11728927_at) / Fold change /veh DDX43 (11728927_at) / RFU KRT8 (11758188_x_at) / Fold change /veh KRT8 (11758188_x_at) / RFU NKD1 (11759106_at) / Fold change /veh NKD1 (11759106_at) / RFU SRD5A1 (11742802_a_at) / Fold change /veh SRD5A1 (11742802_a_at) / RFU TPSAB1 /// TPSB2 (11721975_s_at) / Fold change /veh TPSAB1 /// TPSB2 (11721975_s_at) / RFU GSTM3 (11746129_a_at) / Fold change /veh GSTM3 (11746129_a_at) / RFU IL23R (11737362_x_at) / Fold change /veh IL23R (11737362_x_at) / RFU TMEM51 (11727254_a_at) / Fold change /veh TMEM51 (11727254_a_at) / RFU PIWIL2 (11732686_x_at) / Fold change /veh PIWIL2 (11732686_x_at) / RFU ORM1 (11744905_x_at) / Fold change /veh ORM1 (11744905_x_at) / RFU CCDC152 (11743942_at) / Fold change /veh CCDC152 (11743942_at) / RFU ECM1 (11717891_a_at) / Fold change /veh ECM1 (11717891_a_at) / RFU IL23R (11748794_a_at) / Fold change /veh IL23R (11748794_a_at) / RFU TNFAIP8L3 (11732012_x_at) / Fold change /veh TNFAIP8L3 (11732012_x_at) / RFU MBOAT4 (11741988_at) / Fold change /veh MBOAT4 (11741988_at) / RFU 11764193_at / Fold change /veh 11764193_at / RFU TMEM53 (11763286_at) / Fold change /veh TMEM53 (11763286_at) / RFU MAGEB2 (11727129_at) / Fold change /veh MAGEB2 (11727129_at) / RFU TMEM200A (11744735_a_at) / Fold change /veh TMEM200A (11744735_a_at) / RFU CCDC152 (11751479_a_at) / Fold change /veh CCDC152 (11751479_a_at) / RFU FAM211A (11726209_a_at) / Fold change /veh FAM211A (11726209_a_at) / RFU RGS16 (11746705_a_at) / Fold change /veh RGS16 (11746705_a_at) / RFU VCAN (11755009_s_at) / Fold change /veh VCAN (11755009_s_at) / RFU RHOB (11743442_s_at) / Fold change /veh RHOB (11743442_s_at) / RFU RGS16 (11720943_a_at) / Fold change /veh RGS16 (11720943_a_at) / RFU RGS16 (11720944_at) / Fold change /veh RGS16 (11720944_at) / RFU, VPS4B / Fold change vs veh, VPS4B / RFU, CREB1 / Fold change vs veh, CREB1 / RFU, DNAJC13 / Fold change vs veh, DNAJC13 / RFU, GNAQ / Fold change vs veh, GNAQ / RFU, CDK5R1 / Fold change vs veh, CDK5R1 / RFU, ZRANB3 / Fold change vs veh, ZRANB3 / RFU, CUL4A / Fold change vs veh, CUL4A / RFU, CCNY / Fold change vs veh, CCNY / RFU, UFL1 / Fold change vs veh, UFL1 / RFU, COG3 / Fold change vs veh, COG3 / RFU, DIAPH2 / Fold change vs veh, DIAPH2 / RFU, SKA2 / Fold change vs veh, SKA2 / RFU, AFF3 / Fold change vs veh, AFF3 / RFU, LMF1 / Fold change vs veh, LMF1 / RFU, IPO11 / Fold change vs veh, IPO11 / RFU, DFFB / Fold change vs veh, DFFB / RFU, FOXP1 / Fold change vs veh, FOXP1 / RFU, CARD8 / Fold change vs veh, CARD8 / RFU, STRN3 / Fold change vs veh, STRN3 / RFU, ADK / Fold change vs veh, ADK / RFU, RASSF2 / Fold change vs veh, RASSF2 / RFU, WIPF1 / Fold change vs veh, WIPF1 / RFU, LARP1B / Fold change vs veh, LARP1B / RFU, RASA1 / Fold change vs veh, RASA1 / RFU, RB1 / Fold change vs veh, RB1 / RFU, PPFIA1 / Fold change vs veh, PPFIA1 / RFU, MAT2A / Fold change vs veh, MAT2A / RFU, CCT5 / Fold change vs veh, CCT5 / RFU, WDR92 / Fold change vs veh, WDR92 / RFU, CUX1 / Fold change vs veh, CUX1 / RFU, TTC7A / Fold change vs veh, TTC7A / RFU, TMEM135 / Fold change vs veh, TMEM135 / RFU, DEPTOR / Fold change vs veh, DEPTOR / RFU, CPM / Fold change vs veh, CPM / RFU, DNAJB6 / Fold change vs veh, DNAJB6 / RFU, CACNA2D3 / Fold change vs veh, CACNA2D3 / RFU, DTX4 / Fold change vs veh, DTX4 / RFU, TFCP2 / Fold change vs veh, TFCP2 / RFU, GMCL1 /// GMCL1P1 / Fold change vs veh, GMCL1 /// GMCL1P1 / RFU, AEBP2 / Fold change vs veh, AEBP2 / RFU, SNHG1 /// SNORD22 /// SNORD25 /// SNORD26 /// SNORD27 /// SNORD28 /// SNORD29 /// SNORD31 / Fold change vs veh, SNHG1 /// SNORD22 /// SNORD25 /// SNORD26 /// SNORD27 /// SNORD28 /// SNORD29 /// SNORD31 / Fold change (Aza/veh), C12orf56 (ProbeSet 11735607_a_at) / Fold change (ACY-1035/veh), C12orf56 (ProbeSet 11735607_a_at) / Fold change (Aza/veh), FGFR1OP (ProbeSet 11751329_s_at) / Fold change (ACY-1035/veh), FGFR1OP (ProbeSet 11751329_s_at) / Fold change (Aza/veh), VPS36 (ProbeSet 11739960_a_at) / Fold change (ACY-1035/veh), VPS36 (ProbeSet 11739960_a_at) / RFU SYPL1 (11715823_x_at) / Fold change /veh SYPL1 (11715823_x_at) / RFU IGFBP7 (11715501_s_at) / Fold change /veh IGFBP7 (11715501_s_at) / RFU REEP3 (11722064_at) / Fold change /veh REEP3 (11722064_at) / RFU IGLL1 (11728026_x_at) / Fold change /veh IGLL1 (11728026_x_at): dose or concentration left out as unconfirmed. The format is cell-based, human. The conditions noted are these: MV-4-11 cells, 48 hours.

As to `Nc1ncn([C@@H]2O[C@H](CO)[C@@H](O)[C@H]2O)c(=O)n1` [azacitidine], the “RFU GAP43 (11754022_s_at)” value was determined as 65.19 RFU.

The record behind these values is paper PMC5218480 (PLoS ONE, 2017).
